Test results reported in patent US12630534B2 (TAKEDA PHARMACEUTICAL COMPANY LIMITED, priority 2020, dated 2026).

Biological target: T1, human GPR139 (Homo sapiens, UniProt Q6DWJ6)
T1 construct: expressed in transfected cells; host or cells: CHO-TREx (Life Technologies) cells, expression induced with doxycycline
T1 sequence (Q6DWJ6 1-353): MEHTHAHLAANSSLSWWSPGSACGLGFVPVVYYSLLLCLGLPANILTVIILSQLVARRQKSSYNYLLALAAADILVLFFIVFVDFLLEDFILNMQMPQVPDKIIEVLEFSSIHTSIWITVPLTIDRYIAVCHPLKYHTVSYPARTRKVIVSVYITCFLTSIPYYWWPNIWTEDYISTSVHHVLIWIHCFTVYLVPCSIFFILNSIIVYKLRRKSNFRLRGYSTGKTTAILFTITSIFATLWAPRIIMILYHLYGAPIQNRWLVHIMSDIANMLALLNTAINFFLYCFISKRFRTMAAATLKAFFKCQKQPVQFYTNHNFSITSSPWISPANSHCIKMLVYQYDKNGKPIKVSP
Test: Inhibition rate of the amount of IP1 in GPR139-expressed CHO cells (inverse agonist assay, Test Example 2)
Assay type: cell-based
Settings: CHO, relative value, inhibition rate of Example Compound 2 in Test Example 1 defined as 100%
Description: The measurement of IP1 was made using an IP-ONE HTFR assay kit (cis-bio) and CHO-TREx (Life Technologies) cells stably transfected with GPR139. The CHO-TREx cells expressed human GPR139 with a tetracycline-inducing element. The cells were cultured in a medium containing F12K and 10% tetracycline-free FBS, and the expression of human GPR139 was induced over the course of 17 hours under conditions of 37° C. and 5% CO2 in the presence of 2 μg/mL of doxycycline (Clontech, 631311) in the growth medium on the day before assay. On the day of the test, after the cells were washed with 10 mL of PBS, the cells were detached with TrypLE Express (Life Technologies) and centrifuged at 1,000 rpm to form pellets, and a cell suspension was then prepared using a stimulation buffer (cis-bio, included in the IP-ONE HTRF assay kit).
The compound was diluted with the stimulation buffer, and 4 μL was added to a 384-well white assay plate (Greiner). The cell suspension was added so that there were 2000 cells per well, and the assay plate was left to stand for 40 minutes at 37° C. Equal amounts of IP1-d2 and Ab-Crp solutions (both available from cis-bio, included in the IP-ONE HTRF assay kit) prepared with a lysis buffer (cis-bio, included in the IP-ONE HTRF assay kit) were mixed, and 4 μL was added to the assay plate and left to stand for one hour at room temperature. After the fluorescence strengths of two wavelengths were measured by the HTRF settings of Envision (PerkinElmer), the value of Ratio={(Signal 665 nm)/(Signal 615 nm)}×10000 was calculated.
Measurement of the Inhibition Rate of the Amount of IP1 in GPR139-Expressed CHO Cells (Inverse Agonist Assay)
The activities of the compounds of Examples 1 and 3 to 167 were expressed as relative values in Table 2 by measuring the inhibition rate of the amount of IP1 with the same method as in Test Example 1 and defining the inhibition rate of the amount of IP1 of Example Compound 2 in Test Example 1 as […].

SMILES | inhibition at 30 µM [%]
CCn1cc(Cn2ccn(-c3cc(-c4ccc(F)cc4)cc(C(F)(F)F)c3)c2=O)cn1 [Example 1, 1-[(1-Ethyl-1H-pyrazole-4-yl)methyl]-3-[4′-fluoro-5-(trifluoromethyl)[1,1′-biphenyl]-3-yl]-1,3-dihydro-2H-imidazole-2-one] | 99
CCn1cc(Cn2cc(C)n(-c3cc(-c4ccc(F)cc4)cc(C(F)(F)F)c3)c2=O)cn1 [Example 3, 1-[(1-ethyl-1H-pyrazol-4-yl)methyl]-3-[4′-fluoro-5-(trifluoromethyl)[1,1′-biphenyl]-3-yl]-4-methyl-1,3-dihydro-2H-imidazol-2-one] | 101
CCn1cc(Cn2cc(C)n(-c3cc(N4CCO[C@H](C)C4)cc(C(F)(F)F)c3F)c2=O)cn1 [Example 4, 1-[(1-ethyl-1H-pyrazol-4-yl)methyl]-3-{2-fluoro-5-[(2R)-2-methylmorpholin-4-yl]-3-(trifluoromethyl)phenyl}-4-methyl-1,3-dihydro-2H-imidazol-2-one] | 102
CCn1cc(Cn2cc(C)n(-c3cc(Oc4ccc(F)cc4)cc(C(F)(F)F)c3)c2=O)cn1 [Example 5, 1-[(1-ethyl-1H-pyrazol-4-yl)methyl]-3-[3-(4-fluorophenoxy)-5-(trifluoromethyl)phenyl]-4-methyl-1,3-dihydro-2H-imidazol-2-one] | 99
CCn1cc(Cn2cc(C)n(-c3cc(OC4CCOCC4)cc(C(F)(F)F)c3)c2=O)cn1 [Example 6, 1-[(1-ethyl-1H-pyrazol-4-yl)methyl]-4-methyl-3-{3-[(oxan-4-yl)oxy]-5-(trifluoromethyl)phenyl}-1,3-dihydro-2H-imidazol-2-one] | 102
CCn1cc(Cn2cc(C)n(-c3cc(OCC4CC(F)(F)C4)cc(C(F)(F)F)c3)c2=O)cn1 [Example 7, 3-{3-[(3,3-difluorocyclobutyl)methoxy]-5-(trifluoromethyl)phenyl}-1-[(1-ethyl-1H-pyrazol-4-yl)methyl]-4-methyl-1,3-dihydro-2H-imidazol-2-one] | 102
CCn1cc(Cn2ccn(-c3cc(N4CCO[C@H](C)C4)cc(C(F)(F)F)c3C)c2=O)cn1 [Example 8, 1-[(1-ethyl-1H-pyrazol-4-yl)methyl]-3-{2-methyl-5-[(2R)-2-methylmorpholin-4-yl]-3-(trifluoromethyl)phenyl}-1,3-dihydro-2H-imidazol-2-one] | 101
CCn1cc(C(C)n2ccn(-c3cc(N4CCO[C@H](C)C4)cc(C(F)(F)F)c3F)c2=O)cn1 (stereo partly drawn) [Example 9, 1-[1-(1-ethyl-1H-pyrazol-4-yl)ethyl]-3-{2-fluoro-5-[(2R)-2-methylmorpholin-4-yl]-3-(trifluoromethyl)phenyl}-1,3-dihydro-2H-imidazol-2-one] | 102
CCn1cc(Cn2ccn(-c3cc(N(C)C4CCOCC4)cc(C(F)(F)F)c3F)c2=O)cn1 [Example 10, 1-[(1-ethyl-1H-pyrazol-4-yl)methyl]-3-{2-fluoro-5-[methyl(oxan-4-yl)amino]-3-(trifluoromethyl)phenyl}-1,3-dihydro-2H-imidazol-2-one] | 100
CCn1cc(Cn2ccn(-c3cc(N4CCO[C@@H](C)C4)cc(C(F)(F)F)c3F)c2=O)cn1 [Example 11, 1-[(1-ethyl-1H-pyrazol-4-yl)methyl]-3-{2-fluoro-5-[(2S)-2-methylmorpholin-4-yl]-3-(trifluoromethyl)phenyl}-1,3-dihydro-2H-imidazol-2-one] | 98
CCn1cc(Cn2ccn(-c3cc(N4CCOC(C)(C)C4)cc(C(F)(F)F)c3F)c2=O)cn1 [Example 12, 1-[5-(2,2-dimethylmorpholin-4-yl)-2-fluoro-3-(trifluoromethyl)phenyl]-3-[(1-ethyl-1H-pyrazol-4-yl)methyl]-1,3-dihydro-2H-imidazol-2-one] | 98
CCn1ncc(Cn2ccn(-c3cc(N4CCO[C@H](C)C4)cc(C(F)(F)F)c3F)c2=O)c1C [Example 13, 1-[(1-ethyl-5-methyl-1H-pyrazol-4-yl)methyl]-3-{2-fluoro-5-[(2R)-2-methylmorpholin-4-yl]-3-(trifluoromethyl)phenyl}-1,3-dihydro-2H-imidazol-2-one] | 101
CCn1cc(Cn2cc(C)n(-c3cc(N4CCO[C@H](C)C4)cc(C(F)(F)F)c3)c2=O)cn1 [Example 14, 1-[(1-ethyl-1H-pyrazol-4-yl)methyl]-4-methyl-3-{3-[(2R)-2-methylmorpholin-4-yl]-5-(trifluoromethyl)phenyl}-1,3-dihydro-2H-imidazol-2-one] | 99
CCn1cc(Cn2ccn(-c3cc(N4CCO[C@H](C)C4)cc(C(F)(F)F)c3Cl)c2=O)cn1 [Example 15, 1-{2-chloro-5-[(2R)-2-methylmorpholin-4-yl]-3-(trifluoromethyl)phenyl}-3-[(1-ethyl-1H-pyrazol-4-yl)methyl]-1,3-dihydro-2H-imidazol-2-one] | 101
CCn1cc(Cn2c(C)c(C)n(-c3cc(N4CCO[C@H](C)C4)cc(C(F)(F)F)c3)c2=O)cn1 [Example 16, 1-[(1-ethyl-1H-pyrazol-4-yl)methyl]-4,5-dimethyl-3-(3-[(2R)-2-methylmorpholin-4-yl]-5-(trifluoromethyl)phenyl}-1,3-dihydro-2H-imidazol-2-one] | 100
CCn1cc(Cn2cc(C)n(-c3cc(OCC4CC4)cc(C(F)(F)F)c3)c2=O)cn1 [Example 17, 3-[3-(cyclopropylmethoxy)-5-(trifluoromethyl)phenyl]-1-[(1-ethyl-1H-pyrazol-4-yl)methyl]-4-methyl-1,3-dihydro-2H-imidazol-2-one] | 99

Second part, the compound after the results:

inhibition at 30 µM [%] | SMILES
101 | CCn1cc(Cn2cc(C)n(-c3cc(C(F)(F)F)cc(N4CCO[C@H](C)C4)n3)c2=O)cn1 [Example 18, 1-[(1-Ethyl-1H-pyrazole-4-yl)methyl]-4-methyl-3-{6-[(2R)-2-methylmorpholine-4-yl]-4-(trifluoromethyl)pyridine-2-yl}-1,3-dihydro-2H-imidazole-2-one]
100 | CCn1cc(Cn2cc(C)n(-c3cc(N4CCC(F)(F)CC4)cc(C(F)(F)F)c3)c2=O)cn1 [Example 19, 3-[3-(4,4-difluoropiperidin-1-yl)-5-(trifluoromethyl)phenyl]-1-[(1-ethyl-1H-pyrazol-4-yl)methyl]-4-methyl-1,3-dihydro-2H-imidazol-2-one]
99 | CCn1cc(Cn2cc(C)n(-c3cc(N4CCOC(C(F)F)C4)cc(C(F)(F)F)c3)c2=O)cn1 (centres unmarked) [Example 20, 3-{3-[2-(difluoromethyl)morpholin-4-yl]-5-(trifluoromethyl)phenyl}-1-[(1-ethyl-1H-pyrazol-4-yl)methyl]-4-methyl-1,3-dihydro-2H-imidazol-2-one]
99 | CCn1cc(Cn2cc(C)n(-c3cc(-n4cnc(C)c4)cc(C(F)(F)F)c3)c2=O)cn1 [Example 21, 1-[(1-ethyl-1H-pyrazol-4-yl)methyl]-4-methyl-3-[3-(4-methyl-1H-imidazol-1-yl)-5-(trifluoromethyl)phenyl]-1,3-dihydro-2H-imidazol-2-one]
100 | CCn1cc(Cn2cc(C)n(-c3cc(OCC4CC4(F)F)cc(C(F)(F)F)c3)c2=O)cn1 (centres unmarked) [Example 22, 3-{3-[(2,2-difluorocyclopropyl)methoxy]-5-(trifluoromethyl)phenyl}-1-[(1-ethyl-1H-pyrazol-4-yl)methyl]-4-methyl-1,3-dihydro-2H-imidazol-2-one]
100 | CCn1cc(Cn2cc(C)n(-c3cc(N4C[C@@H](C)O[C@@H](C)C4)cc(C(F)(F)F)c3)c2=O)cn1 [Example 23, 3-{3-[(2R,6S)-2,6-dimethylmorpholin-4-yl]-5-(trifluoromethyl)phenyl}-1-[(1-ethyl-1H-pyrazol-4-yl)methyl]-4-methyl-1,3-dihydro-2H-imidazol-2-one]
100 | CCn1cc(Cn2cc(C)n(-c3cc(N4CCC(F)(F)C4)cc(C(F)(F)F)c3)c2=O)cn1 [Example 24, 3-[3-(3,3-difluoropyrrolidin-1-yl)-5-(trifluoromethyl)phenyl]-1-[(1-ethyl-1H-pyrazol-4-yl)methyl]-4-methyl-1,3-dihydro-2H-imidazol-2-one]
